Results as given in publication PMC9323974, “Palladium(II) Complexes of Substituted Salicylaldehydes: Synthesis, Characterization and Investigation of Their Biological Profile” (Pharmaceuticals, 2022).
Values joined by “and” are separate entries in the source; they are usually repeats but may differ in a detail not shown here. Equal entries are not always repeated. Where two headings read alike, the source gives them in different places.

Columns and labels:
CT DNA = conditions: cited from earlier work
DPPH radical scavenging = conditions: compound 0.1 mM
Experimental: (§1) S1 Antioxidant biological assay
The antioxidant activity of the compounds was evaluated via their ability to scavenge in
vitro free radicals such as DPPH and ABTS and to reduce H2O2. All the experiments were carried
S1.1 Determination of the reducing activity of the stable radical DPPH
To an ethanolic solution of DPPH (0.1 mM) an equal volume solution of the compounds
(0.1 mM) in ethanol was added. Absolute ethanol was also used as control solution. The absorbance
at 517 nm was recorded at room temperature after 30 and 60 min, in order to examine the possible
existence of a potential time–dependence of the DPPH radical scavenging activity [S1]. The DPPH–
scavenging activity of the compounds was expressed as the percentage reduction of the absorbance
values of the initial DPPH solution (DPPH%). NDGA and BHT were used as reference compounds. […]

[1] = Reduction of hydrogen peroxide; conditions: compound 0.1 mM
Experimental: as §1
(§2) The antioxidant activity of the compounds was evaluated via their ability to scavenge in […]
(§3) vitro free radicals such as DPPH and ABTS and to reduce H2O2. […]
S1.3 Reduction of hydrogen peroxide
The ability of the compounds to reduce hydrogen peroxide (H2O2) was estimated according […]
to the method described in the literature [S2]. The reaction mixture contained 20 μL of each of the […]
tested compounds (0.1 mM) and 5 μL H 2O2 solution (40 mM) in phosphate buffer (50 mM, pH 7.4).
The absorbance was measured at 230 nm after 10 min. The antioxidant activity (reduction of […]

[2] = test system: S. aureus, B. subtilis, E. coli, X. campestris; experiment: MIC stated for all tested bacterial strains; type: cell-based; conditions: all tested microbes
Experimental: (§4) S2 Antibacterial activity
(§5) The antimicrobial activity of the compounds was evaluated by determining their respective MIC values towards two Gram–(–) (Escherichia coli NCTC 29212 (E. coli) and Xanthomonas campestris ATCC 1395 (X. campestris)) and two Gram–(+) (Staphylococcus aureus ATCC 6538 (S. aureus) and Bacillus subtilis ATCC 6633 (B. subtilis)) bacterial species. Cultures of these microbial strains were grown on a rich selective agar medium and stored at 4°C. The selective media used were Nutrient Agar or Broth for B. subtilis and S. aureus, Yeast Mold Agar or Broth for X. campestris and Luria Agar or Broth for E. coli. Cells picked from the surface of the stored cultures were used to initiate liquid pre–cultures of the same selective medium at an initial turbidity of roughly 1 McFarland unit. Pre–cultures were incubated for 24 h in a rotary shaking incubator and subsequently they were used to inoculate the test cultures used for the determination of MIC at an initial turbidity of 0.5 McFarland units. The test cultures consisted of Mueller –Hinton broth (Deben Diagnostics Ltd) containing different concentrations of the compounds.
(§6) Different concentrations were achieved as follows: the compounds were freshly dissolved in DMSO to a concentration of 1 mg mL–1 and they were diluted with DMSO, using the method of progressive double dilution. Therefore, working solutions with decreasing concentrations of the compounds under investigation were achieved. The working solutions were subsequently diluted to the final desired concentration by addition to the growth medium at a proportion of 2:98. MIC values were determined as the lowest concentrations of the tested compounds that inhibited visible growth of each respective organism after a 24 h incubation [ S3]. Bacterial growth was determined by measuring the turbidity of appropriately diluted cultures at 600 nm with reference to equally diluted sterile growth medium and the inhibition achieved was calculated by comparing the turbidity of each culture to the average of the turbidity of three non–inhibited cultures. All test cultures were grown in triplicates and for the determination of MIC, growth had to be inhibited in at least two cultures of the triplicate. Incubation temperature at all stages was 37°C except for X. campestris that was cultivated at 28°C [S4].

[3] = cited from earlier work
EB-DNA adduct (CT DNA) = conditions: cited from earlier work
HSA [4] = target: T1, HSA (Homo sapiens, UniProt P02768); conditions: cited from earlier work
T1 construct: purchased Sigma-Aldrich Co

[5] = cited from earlier work; remark: listed apart in the source
BSA [6] = target: T2, BSA (Bos taurus, UniProt P02769); conditions: cited from earlier work
T2 construct: purchased Sigma-Aldrich Co

[7] = cited from earlier work; remark: listed apart in the source
HSA [8] = target: T1, HSA; conditions: cited from earlier work; remark: listed apart in the source
[9] = test system: Bacillus subtilis ATCC 6633; experiment: MIC determination; type: cell-based
Experimental: as §4, §5, §6

[10] = test system: Xanthomonas campestris ATCC 1395; experiment: MIC determination; type: cell-based; conditions: Xanthomonas campestris, ATCC1395, 24 h, read-out: MIC X. campestris
Experimental: as §4, §5, §6

[11] = test system: Escherichia coli NCTC 29212; experiment: MIC determination; type: cell-based
Experimental: as §4, §5, §6

[12] = test system: Staphylococcus aureus ATCC 6538; experiment: MIC determination; type: cell-based
Experimental: as §4, §5, §6

BSA [13] = target: T2, BSA; conditions: cited from earlier work; remark: listed apart in the source
[14] = ABTS radical cation scavenging; conditions: compound 0.1 mM
Experimental: as §1, §2, §3
S1.2 Assay of radical cation ABTS–scavenging activity
The ABTS assay was performed to determine the activity of the compounds to scavenge the […]
radical cation ABTS. Initially, a water solution of ABTS was prepared (2 mM). ABTS radical cation […]
(ABTS+·) was produced by the reaction of ABTS stock solution with potassium persulfate (0.17 […]
mM) and the mixture was stored in the dark at room temperature for 12–16 h before its use. The […]
ABTS was oxidized incompletely because the stoichiometric reaction ratio of ABTS and potassium […]
persulfate is 1:0.5. The absorbance became maximal and stable only after more than 6 h of reaction […]
although the oxidation of the ABTS started immediately. The radical was stable in this form for […]
more than 2 days when allowed to stand in the dark at room temperature. Afterwards, the ABTS+· […]
solution was diluted in ethanol to an absorbance of 0.70 at 734 nm and 10 μL of diluted compounds or standards (0.1 mM) in DMSO were added. The absorbance was recorded out exactly 1 min after […]
initial mixing [S1]. The ABTS radical scavenging activity was expressed as the percentage inhibition of the absorbance of the initial ABTS solution (ABTS%). […]

T2 sequence (P02769 25-607): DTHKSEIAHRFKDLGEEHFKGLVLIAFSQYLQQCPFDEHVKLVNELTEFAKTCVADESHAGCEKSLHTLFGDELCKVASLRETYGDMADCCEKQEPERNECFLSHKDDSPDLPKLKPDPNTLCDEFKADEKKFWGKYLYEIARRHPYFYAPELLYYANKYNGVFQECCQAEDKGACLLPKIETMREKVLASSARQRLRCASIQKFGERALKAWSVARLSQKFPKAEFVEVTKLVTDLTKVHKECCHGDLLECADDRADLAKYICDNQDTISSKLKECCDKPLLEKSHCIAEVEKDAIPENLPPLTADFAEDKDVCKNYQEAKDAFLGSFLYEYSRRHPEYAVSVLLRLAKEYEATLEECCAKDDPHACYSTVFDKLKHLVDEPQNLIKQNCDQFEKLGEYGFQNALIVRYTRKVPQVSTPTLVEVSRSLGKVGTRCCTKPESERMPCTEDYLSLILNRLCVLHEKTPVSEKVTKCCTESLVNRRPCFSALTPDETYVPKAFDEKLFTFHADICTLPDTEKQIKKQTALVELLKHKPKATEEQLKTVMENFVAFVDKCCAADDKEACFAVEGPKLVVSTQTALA
T1 sequence (P02768 25-609): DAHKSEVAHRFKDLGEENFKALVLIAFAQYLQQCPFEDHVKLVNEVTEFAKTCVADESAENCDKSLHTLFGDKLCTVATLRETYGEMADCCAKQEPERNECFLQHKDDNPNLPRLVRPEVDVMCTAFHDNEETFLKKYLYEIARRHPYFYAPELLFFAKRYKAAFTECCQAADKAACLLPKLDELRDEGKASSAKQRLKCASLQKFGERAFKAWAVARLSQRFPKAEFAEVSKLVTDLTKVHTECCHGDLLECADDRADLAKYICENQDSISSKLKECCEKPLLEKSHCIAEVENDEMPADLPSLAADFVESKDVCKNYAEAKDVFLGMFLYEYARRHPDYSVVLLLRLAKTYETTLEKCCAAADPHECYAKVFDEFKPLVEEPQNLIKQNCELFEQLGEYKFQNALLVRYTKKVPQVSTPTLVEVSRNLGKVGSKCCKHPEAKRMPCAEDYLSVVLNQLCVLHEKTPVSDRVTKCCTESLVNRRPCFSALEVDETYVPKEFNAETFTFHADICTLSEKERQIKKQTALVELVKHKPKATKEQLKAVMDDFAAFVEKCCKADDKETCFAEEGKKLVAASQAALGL

SMILES: CC[n+]1c(-c2ccccc2)c2cc(N)ccc2c2ccc(N)cc21.[Br-] [EB, 3,8-diamino-5-ethyl-6-phenyl-phenanthridinium bromide]
- Kb (DNA-binding constant) (CT DNA; classical intercalator): 1.23 (±0.07) × 10^5 M^−1

SMILES: Cc1cc(C(C)(C)C)c(O)c(C(C)(C)C)c1 [BHT, butylated hydroxytoluene, reference compound]
- DPPH% (30 min) (DPPH radical scavenging): 61.30 ± 1.16%
- DPPH% (60 min) (DPPH radical scavenging): 79.78 ± 1.12%

SMILES: O=C1O[C@H]([C@@H](O)CO)C(O)=C1O [L-ascorbic acid, reference compound]
- H2O2% [1]: 60.80 ± 0.20%

SMILES: CC(=O)[O-].CC(=O)[O-].[Pd+2] [Pd(CH3COO)2]
- MIC [2]: > 200 µg/mL

SMILES: O=Cc1cc(Cl)cc(Cl)c1O [3,5-diCl-saloH, 3,5-dichloro-salicylaldehyde]
- ABTS% [3]: 84.89 ± 0.16%
- KSV (Stern–Volmer constant), EB-DNA (EB-DNA adduct (CT DNA)): 3.56 (±0.09) × 10^4 M^−1
- kq (EB-DNA quenching constant) (EB-DNA adduct (CT DNA)): 1.55 (±0.04) × 10^12 M^−1s^−1
- ΔΙ/Ι0 (%) EB-DNA fluorescence quenching (EB-DNA adduct (CT DNA)): 43.2%
- K HSA-binding constant (HSA [4]): 6.33 (±0.14) × 10^5 M^−1
- kq HSA-quenching constant (HSA [4]): 7.11 (±0.32) × 10^12 M^−1 s^−1
- H2O2% [5]: 79.92 ± 0.34%
- BSA-binding constant K, Marker: Ibuprofen (BSA [6]): 1.35 (±0.55) × 10^5 M^−1
- BSA-binding constant K, No Marker (BSA [6]): 1.64 (±0.10) × 10^6 M^−1
- BSA-binding constant K, Marker: Warfarin (BSA [6]): 5.09 (±0.09) × 10^5 M^−1
- DPPH% (30 min) [7]: 15.68 ± 0.15%
- DPPH% (60 min) [7]: 18.80 ± 0.52%
- Kb (DNA-binding constant) (CT DNA): 5.36 (±0.15) × 10^5 M^−1
- HSA-binding constant K, Marker: Ibuprofen (HSA [8]): 1.87 (±0.08) × 10^5 M^−1
- HSA-binding constant K, No Marker (HSA [8]): 6.33 (±0.14) × 10^5 M^−1
- HSA-binding constant K, Marker: Warfarin (HSA [8]): 1.52 (±0.07) × 10^5 M^−1
- MIC ([9]; Bacillus subtilis, ATCC6633, 24 h; read-out: MIC B. subtilis): 50 µg/mL
- MIC ([9]; Bacillus subtilis, ATCC6633; 24 h, value in parentheses; read-out: MIC B. subtilis): 262 µM
- MIC [10]: 50 µg/mL and 262 µM
- MIC ([11]; Escherichia coli, NCTC29212, 24 h; read-out: MIC E. coli): 50 µg/mL
- MIC ([11]; Escherichia coli, NCTC29212; 24 h, value in parentheses; read-out: MIC E. coli): 262 µM
- MIC ([12]; Staphylococcus aureus, ATCC6538, 24 h; read-out: MIC S. aureus): 50 µg/mL
- MIC ([12]; Staphylococcus aureus, ATCC6538; 24 h, value in parentheses; read-out: MIC S. aureus): 262 µM
- K BSA-binding constant (BSA [13]): 1.64 (±0.10) × 10^6 M^−1
- kq BSA-quenching constant (BSA [13]): 1.47 (±0.09) × 10^13 M^−1 s^−1

SMILES: CC(Cc1ccc(O)c(O)c1)C(C)Cc1ccc(O)c(O)c1 (stereo not shown) [NDGA, nordihydroguaiaretic acid, reference compound]
- DPPH% (30 min) (DPPH radical scavenging): 87.08 ± 0.12%
- DPPH% (60 min) (DPPH radical scavenging): 87.47 ± 0.12%

SMILES: Cc1c(C)c2c(c(C)c1O)CCC(C)(C(=O)O)O2 (stereo not shown) [Trolox, 6-hydroxy-2,5,7,8-tetramethylchromane-2-carboxylic acid, reference compound]
- ABTS% [14]: 98.10 ± 0.48%

SMILES: O=Cc1cc(Br)cc(Br)c1O [3,5-diBr-saloH, 3,5-dibromo-salicylaldehyde]
- ABTS% [3]: 16.55 ± 0.31%
- KSV (Stern–Volmer constant), EB-DNA (EB-DNA adduct (CT DNA)): 3.95 (±0.10) × 10^4 M^−1
- kq (EB-DNA quenching constant) (EB-DNA adduct (CT DNA)): 1.72 (±0.04) × 10^12 M^−1s^−1
- ΔΙ/Ι0 (%) EB-DNA fluorescence quenching (EB-DNA adduct (CT DNA)): 46.6%
- K HSA-binding constant (HSA [4]): 4.04 (±0.30) × 10^5 M^−1
- kq HSA-quenching constant (HSA [4]): 1.72 (±0.06) × 10^13 M^−1 s^−1
- H2O2% [5]: 76.05 ± 1.51%
- BSA-binding constant K, Marker: Ibuprofen (BSA [6]): 7.11 (±0.29) × 10^5 M^−1
- BSA-binding constant K, No Marker (BSA [6]): 2.97 (±0.16) × 10^6 M^−1
- BSA-binding constant K, Marker: Warfarin (BSA [6]): 2.84 (±0.10) × 10^5 M^−1
- DPPH% (30 min) [7]: 7.97 ± 0.53%
- DPPH% (60 min) [7]: 10.22 ± 0.30%
- Kb (DNA-binding constant) (CT DNA): 3.71 (±0.14) × 10^5 M^−1
- HSA-binding constant K, Marker: Ibuprofen (HSA [8]): 4.56 (±0.37) × 10^4 M^−1
- HSA-binding constant K, No Marker (HSA [8]): 4.04 (±0.30) × 10^5 M^−1
- HSA-binding constant K, Marker: Warfarin (HSA [8]): 1.23 (±0.05) × 10^5 M^−1
- MIC ([9]; Bacillus subtilis, ATCC6633, 24 h, read-out: MIC B. subtilis): 25 µg/mL and 89 µM
- MIC [10]: 25 µg/mL and 89 µM
- MIC ([11]; Escherichia coli, NCTC29212, 24 h, read-out: MIC E. coli): 50 µg/mL and 179 µM
- MIC ([12]; Staphylococcus aureus, ATCC6538, 24 h, read-out: MIC S. aureus): 25 µg/mL and 89 µM
- K BSA-binding constant (BSA [13]): 2.97 (±0.16) × 10^6 M^−1
- kq BSA-quenching constant (BSA [13]): 3.65 (±0.25) × 10^13 M^−1 s^−1
